Target: EGFR (Homo sapiens (Human), UniProt P00533)
Test: EGFR kinase inhibition, luciferase-coupled chemiluminescent assay (LCCA)
Details: read-out: EGFR IC50
Method: Kinase activity and compound inhibition are investigated using one or more of the three assay formats described below. The ATP concentrations are selected near its Michaelis-Menten constant (KM) for each individual kinase. Dose-response experiments are performed at ten different inhibitor concentrations in a 384-well plate format. […] Typically H is close to unity.
In the LCCA assays, kinase activity is measured by the ATP consumption that is accurately measured by luciferase-coupled chemiluminescence. Greiner 384-well white clear bottom medium binding plates are used for LCCA. Briefly the kinase reaction is initiated by mixing compounds, ATP and kinases in a 20 μL volume. At the end of the kinase reaction, a 20 μL luciferase-luciferin mix is added and the chemiluminescent signal is read on a Wallac Victor^2 reader.

Sequence of EGFR (P00533 672-1210): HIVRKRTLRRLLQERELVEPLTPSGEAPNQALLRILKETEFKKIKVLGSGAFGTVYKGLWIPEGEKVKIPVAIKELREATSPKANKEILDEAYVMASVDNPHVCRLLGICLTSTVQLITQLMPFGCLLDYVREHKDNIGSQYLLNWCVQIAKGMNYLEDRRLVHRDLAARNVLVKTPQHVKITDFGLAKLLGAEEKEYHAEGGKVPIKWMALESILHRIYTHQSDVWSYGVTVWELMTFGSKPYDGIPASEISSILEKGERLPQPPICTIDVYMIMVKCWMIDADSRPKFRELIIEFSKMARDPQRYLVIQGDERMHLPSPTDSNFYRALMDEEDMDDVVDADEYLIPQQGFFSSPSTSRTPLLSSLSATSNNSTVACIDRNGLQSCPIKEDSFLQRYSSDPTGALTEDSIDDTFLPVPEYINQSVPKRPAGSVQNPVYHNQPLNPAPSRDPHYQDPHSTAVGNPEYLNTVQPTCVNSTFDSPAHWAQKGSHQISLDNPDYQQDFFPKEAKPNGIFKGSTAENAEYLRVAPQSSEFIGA

Structure (SMILES): COc1cc2c(Nc3ccc(Cl)c(Cl)c3)ncnc2cc1OCc1c(C(F)(F)F)nn(C)c1Oc1ccc(Cl)cc1Cl [Example 181, N-(3,4-dichlorophenyl)-7-({[5-[(2,4-dichlorophenyl)oxy]-1-methyl-3-(trifluoromethyl)-1H-pyrazol-4-yl]methyl}oxy)-6-(methyloxy)quinazolin-4-amine]
- IC50: < 50 nM

Structure (SMILES): COc1cc2c(Nc3ccc(Cl)c(Cl)c3)ncnc2cc1OCc1csc(C)n1 [Example 173, N-(3,4-dichlorophenyl)-6-(methyloxy)-7-{[(2-methyl-1,3-thiazol-4-yl)methyl]oxy}quinazolin-4-amine]
- IC50: < 50 nM

Structure (SMILES): COc1cc2c(Nc3ccc(Cl)c(Cl)c3)ncnc2cc1OCc1noc(COCc2ccccc2)n1 [Example 211, N-(3,4-dichlorophenyl)-6-(methyloxy)-7-{[(5-{[(phenylmethyl)oxy]methyl}-1,2,4-oxadiazol-3-yl)methyl]oxy}quinazolin-4-amine]
- IC50: < 50 nM

Structure (SMILES): COc1cc2c(Nc3ccc(F)c(Cl)c3)ncnc2cc1O[C@@H]1CO[C@@H]2[C@H]1OC[C@H]2F [Example 95, 1,4:3,6-dianhydro-5-O-[4-[(3-chloro-4-fluorophenyl)amino]-6-(methyloxy)quinazolin-7-yl]-2-deoxy-2-fluoro-D-iditol]
- IC50: < 50 nM

Structure (SMILES): COc1cc2c(Nc3ccc(Cl)c(Cl)c3)ncnc2cc1OCc1nc(-c2ccc(Cl)cc2)no1 [Example 168, 7-({[3-(4-chlorophenyl)-1,2,4-oxadiazol-5-yl]methyl}oxy)-N-(3,4-dichlorophenyl)-6-(methyloxy)quinazolin-4-amine]
- IC50: < 50 nM

Structure (SMILES): COc1cc2c(Nc3ccc(Cl)c(Cl)c3)ncnc2cc1OCc1cccc2nsnc12 [Example 159, 7-[(2,1,3-benzothiadiazol-4-ylmethyl)oxy]-N-(3,4-dichlorophenyl)-6-(methyloxy)quinazolin-4-amine]
- IC50: < 50 nM

Structure (SMILES): CCN1CCC[C@H]1c1noc(COc2cc3ncnc(Nc4ccc(Cl)c(Cl)c4)c3cc2OC)n1 [Example 255, N-(3,4-dichlorophenyl)-7-[({3-[(2S)-1-ethylpyrrolidin-2-yl]-1,2,4-oxadiazol-5-yl}methyl)oxy]-6-(methyloxy)quinazolin-4-amine]
- IC50: < 50 nM

Structure (SMILES): COc1cc2c(Nc3ccc(Cl)c(Cl)c3)ncnc2cc1OCc1ccc(Cl)nc1 [Example 171, 7-{[(6-chloropyridin-3-yl)methyl]oxy}-N-(3,4-dichlorophenyl)-6-(methyloxy)quinazolin-4-amine]
- IC50: < 50 nM

Structure (SMILES): COc1cc2c(Nc3ccc(Cl)c(C(F)(F)F)c3)ncnc2cc1O[C@@H]1CO[C@@H]2[C@H]1OC[C@H]2F [Example 121, 1,4:3,6-dianhydro-5-O-[4-{[4-chloro-3-(trifluoromethyl)phenyl]amino}-6-(methyloxy)quinazolin-7-yl]-2-deoxy-2-fluoro-D-iditol]
- IC50: < 50 nM

Structure (SMILES): CCN1CCC[C@H]1c1nc(COc2cc3ncnc(Nc4ccc(Cl)c(Cl)c4)c3cc2OC)cs1 [Example 256, N-(3,4-dichlorophenyl)-7-[({2-[(2S)-1-ethylpyrrolidin-2-yl]-1,3-thiazol-4-yl}methyl)oxy]-6-(methyloxy)quinazolin-4-amine]
- IC50: < 50 nM

Structure (SMILES): COc1cc2c(Nc3ccccc3Br)ncnc2cc1O[C@@H]1CO[C@@H]2[C@H]1OC[C@H]2F [Example 128, 1,4:3,6-dianhydro-5-O-[4-[(2-bromophenyl)amino]-6-(methyloxy)quinazolin-7-yl]-2-deoxy-2-fluoro-D-iditol]
- IC50: < 50 nM

Structure (SMILES): COc1cc2c(Nc3ccccc3Cl)ncnc2cc1O[C@@H]1CO[C@@H]2[C@H]1OC[C@H]2F [Example 112, 1,4:3,6-dianhydro-5-O-[4-[(2-chlorophenyl)amino]-6-(methyloxy)quinazolin-7-yl]-2-deoxy-2-fluoro-D-iditol]
- IC50: < 50 nM

Structure (SMILES): COc1cc2c(Nc3ccc(Cl)c(Cl)c3)ncnc2cc1OCC1CNCCO1 (stereo not drawn) [Example 144, N-(3,4-dichlorophenyl)-6-(methyloxy)-7-[(morpholin-2-ylmethyl)oxy]quinazolin-4-amine]
- IC50: < 50 nM

Structure (SMILES): COc1cc2c(Nc3ccc(C)c(Br)c3)ncnc2cc1O[C@@H]1CO[C@@H]2[C@H]1OC[C@H]2F [Example 131, 1,4:3,6-dianhydro-5-O-[4-[(3-bromo-4-methylphenyl)amino]-6-(methyloxy)quinazolin-7-yl]-2-deoxy-2-fluoro-D-iditol]
- IC50: < 50 nM

Structure (SMILES): COc1cc2c(Nc3ccc(F)cc3Cl)ncnc2cc1O[C@@H]1CO[C@@H]2[C@H]1OC[C@H]2F [Example 85, 1,4:3,6-dianhydro-5-O-[4-[(2-chloro4-fluorophenyl)amino]-6-(methyloxy)quinazolin-7-yl]-2-deoxy-2-fluoro-D-iditol]
- IC50: < 50 nM

Structure (SMILES): C=C1CO[C@@H]2[C@@H](Oc3cc4ncnc(Nc5ccc(Br)c(Cl)c5)c4cc3OC)CO[C@H]12 [Example 81, 1,4:3,6-dianhydro-2-O-[4-[(4-bromo-3-chlorophenyl)amino]-6-(methyloxy)quinazolin-7-yl]-5-deoxy-5-methylidene-D-xylo-hexitol]
- IC50: < 50 nM

Structure (SMILES): COc1cc2c(Nc3ccc(Cl)c(Cl)c3)ncnc2cc1OCc1cnn(-c2ccccc2)c1 [Example 165, N-(3,4-dichlorophenyl)-6-(methyloxy)-7-{[(1-phenyl-1H-pyrazol-4-yl)methyl]oxy}quinazolin-4-amine]
- IC50: < 50 nM

Structure (SMILES): COc1cc2c(Nc3cccc(Cl)c3F)ncnc2cc1O[C@@H]1CO[C@@H]2[C@H]1OC[C@H]2F [Example 88, 1,4:3,6-dianhydro-5-O-[4-[(3-chloro-2-fluorophenyl)amino]-6-(methyloxy)quinazolin-7-yl]-2-deoxy-2-fluoro-D-iditol]
- IC50: < 50 nM

Structure (SMILES): COc1cc2c(Nc3ccc(Cl)c(Cl)c3)ncnc2cc1OCc1cc(-c2ccccc2)no1 [Example 177, N-(3,4-dichlorophenyl)-6-(methyloxy)-7-{[(3-phenylisoxazol-5-yl)methyl]oxy}quinazolin-4-amine]
- IC50: < 50 nM

Structure (SMILES): COc1cc2c(Nc3cccc(C(F)(F)F)c3F)ncnc2cc1O[C@@H]1CO[C@@H]2[C@H]1OC[C@H]2F [Example 123, 1,4:3,6-dianhydro-2-deoxy-2-fluoro-5-O-[4-{[2-fluoro-3-(trifluoromethyl)phenyl]amino}-6-(methyloxy)quinazolin-7-yl]-D-iditol]
- IC50: < 50 nM

Structure (SMILES): COc1cc2c(Nc3ccc(Cl)c(Cl)c3F)ncnc2cc1OC[C@@H]1CN2CCCC[C@@H]2C(=O)N1 [Example 50, (3S,9aR)-3-({[4-[(3,4-dichloro-2-fluorophenyl)amino]-6-(methyloxy)quinazolin-7-yl]oxy}methyl)hexahydro-2H-pyrido[1,2-a]pyrazin-1(6H)-one]
- IC50: 50 to 1000 nM

Structure (SMILES): COc1cc2c(Nc3cc(F)c(Oc4ccc(Cl)cc4)c(F)c3)ncnc2cc1O[C@@H]1CO[C@@H]2[C@H]1OC[C@H]2F [Example 101, 1,4:3,6-dianhydro-5-O-[4-({4-[(4-chlorophenyl)oxy]-3,5-difluorophenyl}amino)-6-(methyloxy)quinazolin-7-yl]-2-deoxy-2-fluoro-D-iditol]
- IC50: < 50 nM

Structure (SMILES): COc1cc2c(Nc3cc(C(F)(F)F)ccc3Br)ncnc2cc1O[C@@H]1CO[C@@H]2[C@H]1OC[C@H]2F [Example 124, 1,4:3,6-dianhydro-5-O-[4-{[2-bromo-5-(trifluoromethyl)phenyl]amino}-6-(methyloxy)quinazolin-7-yl]-2-deoxy-2-fluoro-D-iditol]
- IC50: < 50 nM

Structure (SMILES): COc1cc2c(Nc3cc(F)ccc3F)ncnc2cc1O[C@@H]1CO[C@@H]2[C@H]1OC[C@H]2F [Example 91, 1,4:3,6-dianhydro-2-deoxy-5-O-[4-[(2,5-difluorophenyl)amino]-6-(methyloxy)quinazolin-7-yl]-2-fluoro-D-iditol]
- IC50: < 50 nM

Structure (SMILES): C=CCCCCN1CCOC(COc2cc3ncnc(Nc4ccc(Cl)c(Cl)c4)c3cc2OC)C1 (stereo not drawn) [Example 274, N-(3,4-dichlorophenyl)-7-{[(4-hex-5-en-1-ylmorpholin-2-yl)methyl]oxy}-6-(methyloxy)quinazolin-4-amine]
- IC50: < 50 nM

Structure (SMILES): COc1cc2c(Nc3ccc(Cl)c(Cl)c3)ncnc2cc1OCc1cc(Cl)cc2c1OCOC2 [Example 174, 7-{[(6-chloro-4H-1,3-benzodioxin-8-yl)methyl]oxy}-N-(3,4-dichlorophenyl)-6-(methyloxy)quinazolin-4-amine]
- IC50: < 50 nM

Structure (SMILES): COc1cc2c(Nc3ccc(Cl)cc3)ncnc2cc1O[C@@H]1CO[C@@H]2[C@H]1OC[C@H]2F [Example 116, 1,4:3,6-dianhydro-5-O-[4-[(4-chlorophenyl)amino]-6-(methyloxy)quinazolin-7-yl]-2-deoxy-2-fluoro-D-iditol]
- IC50: < 50 nM

Structure (SMILES): COc1cc2c(Nc3ccc(Cl)c(Cl)c3)ncnc2cc1OCc1c(C)cc(C)cc1C [Example 178, N-(3,4-dichlorophenyl)-6-(methyloxy)-7-{[(2,4,6-trimethylphenyl)methyl]oxy}quinazolin-4-amine]
- IC50: < 50 nM

Structure (SMILES): COc1cc2c(Nc3ccc(Br)cc3)ncnc2cc1O[C@@H]1CO[C@@H]2[C@H]1OC[C@H]2F [Example 130, 1,4:3,6-dianhydro-5-O-[4-[(4-bromophenyl)amino]-6-(methyloxy)quinazolin-7-yl]-2-deoxy-2-fluoro-D-iditol]
- IC50: < 50 nM

Structure (SMILES): COc1cc2c(Nc3ccc(Cl)c(Cl)c3)ncnc2cc1OCc1nc2ccccc2s1 [Example 162, 7-[(1,3-benzothiazol-2-ylmethyl)oxy]-N-(3,4-dichlorophenyl)-6-(methyloxy)quinazolin-4-amine]
- IC50: < 50 nM

Structure (SMILES): COc1cc2c(Nc3c(F)cc(F)cc3F)ncnc2cc1O[C@@H]1CO[C@@H]2[C@H]1OC[C@H]2F [Example 100, 1,4:3,6-dianhydro-2-deoxy-2-fluoro-5-O-{6-(methyloxy)-4-[(2,4,6-trifluorophenyl)amino]quinazolin-7-yl}-D-iditol]
- IC50: < 50 nM

Structure (SMILES): COc1cc2c(Nc3ccc(Cl)c(Cl)c3)ncnc2cc1OCC1CNCCCO1 (stereo not drawn) [Example 152, N-(3,4-dichlorophenyl)-6-(methyloxy)-7-[(1,4-oxazepan-2-ylmethyl)oxy]quinazolin-4-amine]
- IC50: < 50 nM

Structure (SMILES): COc1cc(Nc2ncnc3cc(O[C@@H]4CO[C@@H]5[C@H]4OC[C@H]5F)c(OC)cc23)c(OC)cc1Cl [Example 136, 1,4:3,6-dianhydro-5-O-[4-{[4-chloro-2,5-bis(methyloxy)phenyl]amino}-6-(methyloxy)quinazolin-7-yl]-2-deoxy-2-fluoro-D-iditol]
- IC50: < 50 nM

— patent publication US9796704B2, “Substituted quinazolines as receptor-type kinase inhibitors” (Symphony Evolution, Inc., priority 2002, dated 2017)
